Results as given in PubChem BioAssay (NCI).
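Assay format: 96-well plates, 48-hour exposure. TGI is the concentration that stops growth completely.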

Columns and labels:
Test in all cases: NCI anticancer screen, dose series, 48 h
[1] = test system: HCC-2998 colon
[2] = test system: UACC-62 melanoma
[3] = test system: MDA-MB-231 breast
[4] = test system: SK-MEL-5 melanoma
[5] = test system: MDA-MB-435
[6] = test system: NCI-H460 lung
[7] = test system: U251 CNS
[8] = test system: SK-MEL-2 melanoma
[9] = test system: M14 melanoma
[10] = test system: BT-549 breast
[11] = test system: SF-268 CNS
[12] = test system: NCI-H23 lung
[13] = test system: IGROV1 ovarian
[14] = test system: COLO 205 colon
[15] = test system: T-47D breast
[16] = test system: SNB-75 CNS
[17] = test system: SW-620 colon
[18] = test system: OVCAR-5 ovarian
[19] = test system: EKVX NSCLC
[20] = test system: A549 NSCLC
[21] = test system: MALME-3M melanoma
[22] = test system: A498 renal
[23] = test system: OVCAR-8 ovarian
[24] = test system: HCT-116 colon
[25] = test system: NCI-H226 lung
[26] = test system: PC-3 prostate
[27] = test system: NCI-H522 lung
[28] = test system: HS 578T breast
[29] = test system: MCF7 breast
[30] = test system: CAKI-1 renal
[31] = test system: SNB-19 CNS
[32] = test system: HL-60(TB) leukemia
[33] = test system: MOLT-4 leukemia
[34] = test system: SF-295 CNS
[35] = test system: RXF 393 renal
[36] = test system: RPMI-8226 leukemia
[37] = test system: SF-539 CNS
[38] = test system: OVCAR-3 ovarian
[39] = test system: 786-0 renal
[40] = test system: MDA-N
[41] = test system: KM12 colon
[42] = test system: SR leukemia
[43] = test system: UO-31 renal
[44] = test system: K-562 leukemia
[45] = test system: CCRF-CEM leukemia
[46] = test system: OVCAR-4 ovarian
[47] = test system: HOP-62 NSCLC
[48] = test system: LOX IMVI melanoma
[49] = test system: SK-OV-3 ovarian
[50] = test system: HCT-15 colon
[51] = test system: ACHN renal
[52] = test system: UACC-257 melanoma
[53] = test system: SK-MEL-28 melanoma
[54] = test system: HOP-92 NSCLC
[55] = test system: HT29 colon
[56] = test system: DU-145 prostate
[57] = test system: TK-10 renal
[58] = test system: SN12C renal

O=C1Nc2ccccc2/C1=C/c1c(Cl)[nH]c2ccc(O)cc12
TGI [1]: 24.2 µM | TGI [2]: 6.04 µM | TGI [3]: 6.77 µM | TGI [4]: 9.54 µM | TGI [5]: 0.947 µM | TGI [6]: 13.9 µM | TGI [7]: 14.5 µM | TGI [8]: 12.7 µM | TGI [9]: 11 µM | TGI [10]: 18.9 µM | TGI [11]: > 43.7 µM | TGI [12]: 13.8 µM | TGI [13]: 13.5 µM | TGI [14]: 6.4 µM | TGI [15]: 28.3 µM | TGI [16]: 12.4 µM | TGI [17]: 20.7 µM | TGI [18]: 17.1 µM | TGI [19]: 22.5 µM | TGI [20]: > 37.8 µM | TGI [21]: 15.7 µM | TGI [22]: 11.3 µM | TGI [23]: 12.8 µM | TGI [24]: 19.4 µM | TGI [25]: 5.12 µM | TGI [26]: 16.3 µM | TGI [27]: 6.74 µM | TGI [28]: > 100 µM | TGI [29]: 14.8 µM | TGI [30]: 36 µM | TGI [31]: > 58.8 µM | TGI [32]: 5.31 µM | TGI [33]: 40.1 µM | TGI [34]: > 25.5 µM | TGI [35]: 9.02 µM | TGI [36]: 14.1 µM | TGI [37]: 2.16 µM | TGI [38]: > 48.1 µM | TGI [39]: 25.9 µM | TGI [40]: 1.6 µM | TGI [41]: 15.6 µM | TGI [42]: 12 µM | TGI [43]: 28.2 µM | TGI [44]: 17.1 µM | TGI [45]: 10.1 µM | TGI [46]: 38.5 µM | TGI [47]: 19.1 µM | TGI [48]: 27.8 µM | TGI [49]: 30.4 µM | TGI [50]: 17.5 µM | TGI [51]: 31.4 µM | TGI [52]: 22.6 µM | TGI [53]: 22.5 µM | TGI [54]: 45 µM | TGI [55]: 12.1 µM | TGI [56]: 6.69 µM | TGI [57]: 37.1 µM | TGI [58]: 5.22 µM

CCOC(=O)Nc1nn(C)c(=NCc2ccccc2)s1
TGI [2]: > 100 µM | TGI [3]: > 100 µM | TGI [4]: > 100 µM | TGI [5]: > 100 µM | TGI [6]: > 100 µM | TGI [7]: > 100 µM | TGI [8]: > 100 µM | TGI [10]: > 100 µM | TGI [13]: > 100 µM | TGI [14]: > 100 µM | TGI [15]: > 100 µM | TGI [16]: > 100 µM | TGI [17]: > 100 µM | TGI [18]: > 100 µM | TGI [19]: > 100 µM | TGI [20]: > 100 µM | TGI [22]: > 100 µM | TGI [24]: > 100 µM | TGI [26]: > 100 µM | TGI [27]: > 100 µM | TGI [28]: > 100 µM | TGI [29]: > 100 µM | TGI [30]: > 100 µM | TGI [31]: > 100 µM | TGI [32]: > 100 µM | TGI [33]: > 100 µM | TGI [34]: > 100 µM | TGI [35]: > 100 µM | TGI [36]: > 100 µM | TGI [37]: > 100 µM | TGI [38]: > 100 µM | TGI [39]: > 100 µM | TGI [40]: > 100 µM | TGI [41]: > 100 µM | TGI [42]: > 100 µM | TGI [43]: > 100 µM | TGI [44]: > 100 µM | TGI [45]: > 100 µM | TGI [46]: > 100 µM | TGI [47]: > 100 µM | TGI [48]: > 100 µM | TGI [49]: > 100 µM | TGI [50]: > 100 µM | TGI [51]: > 100 µM | TGI [52]: > 100 µM | TGI [53]: > 100 µM | TGI [54]: > 100 µM | TGI [56]: > 100 µM | TGI [57]: > 100 µM | TGI [58]: > 100 µM
